Source: patent publication US9328122B2, “7-substituted Hanfangichin B derivative, and preparation method and use thereof” (HANGZHOU BENSHENG PHARMACEUTICAL CO., LTD., priority 2012, dated 2016)
Converted amounts (≈) assume the structure as drawn.

How the values were obtained:
[1] = system: K562/ADR (K562adr, drug-resistant chronic myeloid leukemia) cells; assay: MTT cell growth inhibition, leukemia cells; assay type: cell-based; conditions: Homo sapiens, K562/ADR, 72 h, MTT; for IC50: read-out: IC50; for IC90: read-out: IC90
Summary of the method: (§1)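 Seed 6000 cells/well in RPMI-1640/10% FBS; next day add derivatives at varied concentrations and mix; incubate 72 h, 37° C., 5% CO2; measure viable cells by MTT.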

[2] = system: NB4 (acute promyelocytic leukemia) cells; assay: MTT cell growth inhibition, leukemia cells; assay type: cell-based; conditions: Homo sapiens, NB4, 72 h, MTT; for IC50: read-out: IC50; for IC90: read-out: IC90
Summary of the method: as §1

[3] = system: RPMI 8226 (multiple myeloma) cells; assay: MTT cell growth inhibition, multiple myeloma cells; assay type: cell-based, human; conditions: Homo sapiens, RPMI 8226, 72 h, MTT; for IC50: read-out: IC50; for IC90: read-out: IC90
Summary of the method: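 Viable-cell readout by MTT after 72 h exposure (37° C, 5% CO2) of RPMI 8226 cells to a range of compound concentrations, added one day post-seeding. Cells were seeded at 6000 per well in RPMI-1640 containing 10% FBS.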

[4] = system: CNE (nasopharyngeal carcinoma) cells; assay: MTT cell growth inhibition, solid tumor cells; assay type: cell-based, human; conditions: Homo sapiens, CNE, 72 h, MTT; for IC50: read-out: IC50; for IC90: read-out: IC90
Summary of the method: (§2)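 After 72 h at 37 °C/5% CO2 with compounds at a range of concentrations, viable cells were quantified by MTT; plating was 6000 cells per well with 24 h pre-culture.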

[5] = system: CaEs-17 (esophageal cancer) cells; assay: MTT cell growth inhibition, solid tumor cells; assay type: cell-based, human; conditions: Homo sapiens, CaEs17, CaEs-17, 72 h, MTT; for IC50: read-out: IC50; for IC90: read-out: IC90
Summary of the method: as §2

[6] = system: PANC-1 (pancreatic cancer) cells; assay: MTT cell growth inhibition, solid tumor cells; assay type: cell-based, human; conditions: Homo sapiens, PANC-1, 72 h, MTT; for IC50: read-out: IC50; for IC90: read-out: IC90
Summary of the method: as §2

[7] = system: PC-3 (prostate cancer) cells; assay: MTT cell growth inhibition, solid tumor cells; assay type: cell-based, human; conditions: Homo sapiens, PC-3, 72 h, MTT; for IC50: read-out: IC50; for IC90: read-out: IC90
Summary of the method: as §2

[8] = system: SK-OV-3 (ovarian cancer) cells; assay: MTT cell growth inhibition, solid tumor cells; assay type: cell-based, human; conditions: Homo sapiens, SK-OV-3, 72 h, MTT; for IC50: read-out: IC50; for IC90: read-out: IC90
Summary of the method: as §2

[9] = system: A549 (human lung cancer) cells; assay: MTT cell growth inhibition, solid tumor cells; assay type: cell-based; conditions: for IC50 / IC90: Homo sapiens, A549, 72 h, MTT; for IC50: read-out: IC50; for IC90: read-out: IC90
Summary of the method: as §2

[10] = system: Becap-37 (human breast cancer) cells; assay: MTT cell growth inhibition, solid tumor cells; assay type: cell-based; conditions: Homo sapiens, Becap-37, 72 h, MTT; for IC50: read-out: IC50; for IC90: read-out: IC90
Summary of the method: as §2

[11] = system: Hela (human cervical cancer) cells; assay: MTT cell growth inhibition, solid tumor cells; assay type: cell-based; conditions: Homo sapiens, Hela, 72 h, MTT; for IC50: read-out: IC50; for IC90: read-out: IC90
Summary of the method: as §2

[12] = system: Hep G2 (human liver cancer) cells; assay: MTT cell growth inhibition, solid tumor cells; assay type: cell-based; conditions: Homo sapiens, HepG2, Hep G2, 72 h, MTT; for IC50: read-out: IC50; for IC90: read-out: IC90
Summary of the method: as §2

[13] = system: Hep-2 (laryngeal carcinoma) cells; assay: MTT cell growth inhibition, solid tumor cells; assay type: cell-based; conditions: Homo sapiens, Hep-2, 72 h, MTT; for IC50: read-out: IC50; for IC90: read-out: IC90
Summary of the method: as §2

[14] = system: MG-63 (osteosarcoma) cells; assay: MTT cell growth inhibition, solid tumor cells; assay type: cell-based; conditions: Homo sapiens, MG-63, 72 h, MTT; for IC50: read-out: IC50; for IC90: read-out: IC90
Summary of the method: as §2

[15] = system: MGC-803 (human gastric cancer) cells; assay: MTT cell growth inhibition, solid tumor cells; assay type: cell-based; conditions: MGC-803, 72 h, MTT; for IC50: read-out: IC50; for IC90: read-out: IC90
Summary of the method: as §2

[16] = system: RKO (human colon adenocarcinoma) cells; assay: MTT cell growth inhibition, solid tumor cells; assay type: cell-based; conditions: Homo sapiens, RKO, 72 h, MTT; for IC50: read-out: IC50; for IC90: read-out: IC90
Summary of the method: as §2

[17] = system: U87-MG (malignant glioma) cells; assay: MTT cell growth inhibition, solid tumor cells; assay type: cell-based; conditions: Homo sapiens, U-87 MG, U87-MG, 72 h, MTT; for IC50: read-out: IC50; for IC90: read-out: IC90
Summary of the method: as §2

tumor = assay: Antitumor activity compared with fangchinoline, overall statement; assay type: cell-based; conditions: tumor type not specified

Compound	IC50 [1]	IC90 [1]	IC50 [2]	IC90 [2]	IC50 [3]	IC90 [3]	IC50 [4]	IC90 [4]	IC50 [5]	IC90 [5]	IC50 [6]	IC90 [6]	IC50 [7]	IC90 [7]	IC50 [8]	IC90 [8]	IC50 [9]	IC90 [9]	IC50 [10]	IC90 [10]	further results
COc1ccc2cc1Oc1ccc(cc1)C[C@H]1c3cc(c(OC)cc3CCN1C)Oc1c(OC3CCCC3)c(OC)cc3c1[C@H](C2)N(C)CC3 [BS-FC-220]	0.43 µg/mL (≈ 0.635 µM)	4 µg/mL (≈ 5.91 µM)	0.66 µg/mL (≈ 0.975 µM)	3.16 µg/mL (≈ 4.67 µM)	0.12 µg/mL (≈ 0.177 µM)	0.5 µg/mL (≈ 0.739 µM)	3.2 µg/mL (≈ 4.73 µM)	7.6 µg/mL (≈ 11.2 µM)	2.6 µg/mL (≈ 3.84 µM)	9.32 µg/mL (≈ 13.8 µM)	2.79 µg/mL (≈ 4.12 µM)	7.68 µg/mL (≈ 11.3 µM)	4.55 µg/mL (≈ 6.72 µM)	7.61 µg/mL (≈ 11.2 µM)	5.41 µg/mL (≈ 7.99 µM)	14.2 µg/mL (≈ 21.1 µM)	2.55 µg/mL (≈ 3.77 µM)	4.97 µg/mL (≈ 7.34 µM)	3.19 µg/mL (≈ 4.71 µM)	6.1 µg/mL (≈ 9.01 µM)	IC50 [11]: 1.43 µg/mL (≈ 2.11 µM); IC90 [11]: 3.71 µg/mL (≈ 5.48 µM); IC50 [12]: 2.37 µg/mL (≈ 3.5 µM); IC90 [12]: 7.01 µg/mL (≈ 10.4 µM); IC50 [13]: 4.2 µg/mL (≈ 6.21 µM); IC90 [13]: 10.3 µg/mL (≈ 15.2 µM); IC50 [14]: 2.8 µg/mL (≈ 4.14 µM); IC90 [14]: 3.6 µg/mL (≈ 5.32 µM); IC50 [15]: 1.4 µg/mL (≈ 2.07 µM); IC90 [15]: 3.96 µg/mL (≈ 5.85 µM); IC50 [16]: 1.25 µg/mL (≈ 1.85 µM); IC90 [16]: 3.73 µg/mL (≈ 5.51 µM); IC50 [17]: 2.28 µg/mL (≈ 3.37 µM); IC90 [17]: 7.03 µg/mL (≈ 10.4 µM); antitumor activity compared with that of fangchinoline (tumor): significantly superior
C=C(C)COc1c(OC)cc2c3c1Oc1cc4c(cc1OC)CCN(C)[C@H]4Cc1ccc(cc1)Oc1cc(ccc1OC)C[C@@H]3N(C)CC2 [BS-FC-221]	0.33 µg/mL (≈ 0.498 µM)	1.31 µg/mL (≈ 1.98 µM)	0.57 µg/mL (≈ 0.86 µM)	1.88 µg/mL (≈ 2.84 µM)	0.11 µg/mL (≈ 0.166 µM)	0.46 µg/mL (≈ 0.694 µM)	1.8 µg/mL (≈ 2.72 µM)	3.8 µg/mL (≈ 5.73 µM)	1.53 µg/mL (≈ 2.31 µM)	5.6 µg/mL (≈ 8.45 µM)	1.42 µg/mL (≈ 2.14 µM)	4.65 µg/mL (≈ 7.02 µM)	3 µg/mL (≈ 4.53 µM)	5.46 µg/mL (≈ 8.24 µM)	2.38 µg/mL (≈ 3.59 µM)	3.94 µg/mL (≈ 5.94 µM)	1.2 µg/mL (≈ 1.81 µM)	3.18 µg/mL (≈ 4.8 µM)	1.91 µg/mL (≈ 2.88 µM)	3.86 µg/mL (≈ 5.82 µM)	IC50 [11]: 0.71 µg/mL (≈ 1.07 µM); IC90 [11]: 1.9 µg/mL (≈ 2.87 µM); IC50 [12]: 1.48 µg/mL (≈ 2.23 µM); IC90 [12]: 4.37 µg/mL (≈ 6.59 µM); IC50 [13]: 1.9 µg/mL (≈ 2.87 µM); IC90 [13]: 5.78 µg/mL (≈ 8.72 µM); IC50 [14]: 0.8 µg/mL (≈ 1.21 µM); IC90 [14]: 1.9 µg/mL (≈ 2.87 µM); IC50 [15]: 1.19 µg/mL (≈ 1.8 µM); IC90 [15]: 3.93 µg/mL (≈ 5.93 µM); IC50 [16]: 1.37 µg/mL (≈ 2.07 µM); IC90 [16]: 2.76 µg/mL (≈ 4.16 µM); IC50 [17]: 1.13 µg/mL (≈ 1.7 µM); IC90 [17]: 4.5 µg/mL (≈ 6.79 µM); antitumor activity compared with that of fangchinoline (tumor): significantly superior
COc1ccc2cc1Oc1ccc(cc1)C[C@H]1c3cc(c(OC)cc3CCN1C)Oc1c(OC(=O)C3CC3)c(OC)cc3c1[C@H](C2)N(C)CC3 [BS-FC-304]	0.44 µg/mL (≈ 0.65 µM)	3 µg/mL (≈ 4.43 µM)	1.24 µg/mL (≈ 1.83 µM)	3.99 µg/mL (≈ 5.9 µM)	0.16 µg/mL (≈ 0.236 µM)	0.98 µg/mL (≈ 1.45 µM)	3.8 µg/mL (≈ 5.61 µM)	7.2 µg/mL (≈ 10.6 µM)	2.35 µg/mL (≈ 3.47 µM)	10.7 µg/mL (≈ 15.8 µM)	3.73 µg/mL (≈ 5.51 µM)	10.4 µg/mL (≈ 15.4 µM)	4.02 µg/mL (≈ 5.94 µM)	10.5 µg/mL (≈ 15.5 µM)	6.45 µg/mL (≈ 9.53 µM)	15.4 µg/mL (≈ 22.7 µM)	2.24 µg/mL (≈ 3.31 µM)	5.59 µg/mL (≈ 8.26 µM)	3.15 µg/mL (≈ 4.65 µM)	7.22 µg/mL (≈ 10.7 µM)	IC50 [11]: 1.87 µg/mL (≈ 2.76 µM); IC90 [11]: 4.65 µg/mL (≈ 6.87 µM); IC50 [12]: 2.49 µg/mL (≈ 3.68 µM); IC90 [12]: 9.42 µg/mL (≈ 13.9 µM); IC50 [13]: 4.95 µg/mL (≈ 7.31 µM); IC90 [13]: 12.2 µg/mL (≈ 18.1 µM); IC50 [14]: 2.32 µg/mL (≈ 3.43 µM); IC90 [14]: 5.72 µg/mL (≈ 8.45 µM); IC50 [15]: 1.87 µg/mL (≈ 2.76 µM); IC90 [15]: 10.2 µg/mL (≈ 15.1 µM); IC50 [16]: 1.79 µg/mL (≈ 2.64 µM); IC90 [16]: 3.45 µg/mL (≈ 5.1 µM); IC50 [17]: 1.68 µg/mL (≈ 2.48 µM); IC90 [17]: 4.97 µg/mL (≈ 7.34 µM); antitumor activity compared with that of fangchinoline (tumor): significantly superior
COc1ccc2cc1Oc1ccc(cc1)C[C@H]1c3cc(c(OC)cc3CCN1C)Oc1c(OC(=O)c3ccc(N(C)C)cc3)c(OC)cc3c1[C@H](C2)N(C)CC3 [BS-FC-308]	0.08 µg/mL (≈ 0.106 µM)	0.47 µg/mL (≈ 0.622 µM)	0.37 µg/mL (≈ 0.489 µM)	0.98 µg/mL (≈ 1.3 µM)	0.12 µg/mL (≈ 0.159 µM)	0.25 µg/mL (≈ 0.331 µM)	1.9 µg/mL (≈ 2.51 µM)	3.6 µg/mL (≈ 4.76 µM)	0.93 µg/mL (≈ 1.23 µM)	3.92 µg/mL (≈ 5.19 µM)	2.38 µg/mL (≈ 3.15 µM)	8.53 µg/mL (≈ 11.3 µM)	2.4 µg/mL (≈ 3.17 µM)	3.49 µg/mL (≈ 4.62 µM)	1.31 µg/mL (≈ 1.73 µM)	1.93 µg/mL (≈ 2.55 µM)	0.99 µg/mL (≈ 1.31 µM)	3.16 µg/mL (≈ 4.18 µM)	1.03 µg/mL (≈ 1.36 µM)	1.95 µg/mL (≈ 2.58 µM)	anti-A549 activity increase over fangchinoline ([9]; relative to fangchinoline, Table 2): more than 3 fold; IC50 [11]: 0.89 µg/mL (≈ 1.18 µM); IC90 [11]: 1.9 µg/mL (≈ 2.51 µM); IC50 [12]: 1.12 µg/mL (≈ 1.48 µM); IC90 [12]: 4.35 µg/mL (≈ 5.75 µM); IC50 [13]: 3.08 µg/mL (≈ 4.07 µM); IC90 [13]: 6.05 µg/mL (≈ 8 µM); IC50 [14]: 1.3 µg/mL (≈ 1.72 µM); IC90 [14]: 1.8 µg/mL (≈ 2.38 µM); IC50 [15]: 0.57 µg/mL (≈ 0.754 µM); IC90 [15]: 1.99 µg/mL (≈ 2.63 µM); IC50 [16]: 0.71 µg/mL (≈ 0.939 µM); IC90 [16]: 1.51 µg/mL (≈ 2 µM); IC50 [17]: 1.27 µg/mL (≈ 1.68 µM); IC90 [17]: 3.75 µg/mL (≈ 4.96 µM); antitumor activity compared with that of fangchinoline (tumor): significantly superior
